Results reported in article PMC3486884 (PLoS Pathogens, 2012).
pIC50: −log10 of the molar value. Where two headings read alike, the source gives them in different places.

Tests used:
HRV14 [1] = conditions: n=2
HRV2 [2] = conditions: n=2
CVB4 [3] = conditions: n=2
HRV1A [4] = assay: microbe, parasite or virus in culture; conditions: Human rhinovirus sp.; for activity at 0.03 µM / activity at 0.1 µM / activity at 0.31 µM / activity at 0.93 µM / activity at 2.78 µM / activity at 8.33 µM / activity at 25 µM: M-HeLa, 7 h; for activity at 0.03 µM: read-out: HRV1A infection (dsRNA), 0.03 µM; for activity at 0.1 µM: read-out: HRV1A infection (dsRNA), 0.10 µM; for activity at 0.31 µM: read-out: HRV1A infection (dsRNA), 0.31 µM; for activity at 0.93 µM: read-out: HRV1A infection (dsRNA), 0.93 µM; for activity at 2.78 µM: read-out: HRV1A infection (dsRNA), 2.78 µM; for activity at 8.33 µM: read-out: HRV1A infection (dsRNA), 8.33 µM; for activity at 25 µM: read-out: HRV1A infection (dsRNA), 25.00 µM
CVA21 [5] = conditions: n=2
HRV1A [6] = conditions: for relative infection: n=2
CVB3 = conditions: n=2
[7] = test system: influenza virus (strain A/Puerto Rico/8/34/H1N1 depicted PR8); assay: microbe, parasite or virus in culture; conditions: unidentified influenza virus, A549, read-out: IC50 (PR8)
HRV16 [8] = assay: microbe, parasite or virus in culture; conditions: Human rhinovirus sp., HRV16, HeLa, read-out: IC50 (HRV16)
HRV16 [9] = conditions: n=2
CVA21 [10] = assay: microbe, parasite or virus in culture; conditions: Coxsackievirus, CVA21, HeLa, read-out: IC50 (CVA21)
HRV2 [11] = assay: microbe, parasite or virus in culture; conditions: Human rhinovirus sp., HRV2, HeLa, read-out: IC50 (HRV2)
CVB4 [12] = assay: microbe, parasite or virus in culture; conditions: Enterovirus B, CVB4, HeLa, read-out: IC50 (CVB4)
HRV14 [13] = assay: microbe, parasite or virus in culture; conditions: Human rhinovirus sp., HRV14, HeLa, read-out: IC50 (HRV14)

CS(=O)(=O)c1ccc(NC(=O)c2cc(Cl)ccc2O)c(Cl)c1 [TVB-1338]
relative infection (HRV14 [1]; 0.1 µM): 1.07
relative infection (HRV14 [1]; 0.3 µM): 1.12
relative infection (HRV14 [1]; 0.9 µM): 1.20
relative infection (HRV14 [1]; 2.8 µM): 1.17
relative infection (HRV14 [1]; 8.3 µM): 1.13
relative infection (HRV14 [1]; 25.0 µM): 0.62
relative infection (HRV2 [2]; 0.1 µM): 1.05
relative infection (HRV2 [2]; 0.3 µM): 1.11
relative infection (HRV2 [2]; 0.9 µM): 1.12
relative infection (HRV2 [2]; 2.8 µM): 1.13
relative infection (HRV2 [2]; 8.3 µM): 1.12
relative infection (HRV2 [2]; 25.0 µM): 0.76
relative infection (CVB4 [3]; 0.1 µM): 1.00
relative infection (CVB4 [3]; 0.3 µM): 1.02
relative infection (CVB4 [3]; 0.9 µM): 1.06
relative infection (CVB4 [3]; 2.8 µM): 1.15
relative infection (CVB4 [3]; 8.3 µM): 1.02
relative infection (CVB4 [3]; 25.0 µM): 0.51
activity at 0.03 µM (HRV1A [4]): 123%
activity at 0.1 µM (HRV1A [4]): 106%
activity at 0.31 µM (HRV1A [4]): 109%
activity at 0.93 µM (HRV1A [4]): 105%
activity at 2.78 µM (HRV1A [4]): 106%
activity at 8.33 µM (HRV1A [4]): 111%
activity at 25 µM (HRV1A [4]): 112%
relative infection (CVA21 [5]; 0.1 µM): 1.02
relative infection (CVA21 [5]; 0.3 µM): 1.05
relative infection (CVA21 [5]; 0.9 µM): 1.03
relative infection (CVA21 [5]; 2.8 µM): 1.05
relative infection (CVA21 [5]; 8.3 µM): 1.06
relative infection (CVA21 [5]; 25.0 µM): 0.81
antiviral activity against HRV1A (structure-activity study, in words) (HRV1A [6]): eliminated antiviral activity
relative infection (HRV1A [6]; 0.1 µM): 1.02
relative infection (HRV1A [6]; 0.3 µM): 0.96
relative infection (HRV1A [6]; 0.9 µM): 1.07
relative infection (HRV1A [6]; 2.8 µM): 1.12
relative infection (HRV1A [6]; 8.3 µM): 1.11
relative infection (HRV1A [6]; 25.0 µM): 0.95
relative infection (CVB3; 0.1 µM): 0.97
relative infection (CVB3; 0.3 µM): 1.10
relative infection (CVB3; 0.9 µM): 1.09
relative infection (CVB3; 2.8 µM): 1.05
relative infection (CVB3; 8.3 µM): 0.94
relative infection (CVB3; 25.0 µM): 0.94
pIC50 [7]: 4.37
pIC50 (HRV16 [8]): ~4.57
relative infection (HRV16 [9]; 0.1 µM): 1.09
relative infection (HRV16 [9]; 0.3 µM): 1.11
relative infection (HRV16 [9]; 0.9 µM): 1.15
relative infection (HRV16 [9]; 2.8 µM): 1.13
relative infection (HRV16 [9]; 8.3 µM): 1.02
relative infection (HRV16 [9]; 25.0 µM): 0.67

O=C(Nc1ccc([N+](=O)[O-])cc1Cl)c1cc(Cl)cc(Cl)c1O [TVB-1326]
relative infection (HRV14 [1]; 0.1 µM): 0.87
relative infection (HRV14 [1]; 0.3 µM): 0.90
relative infection (HRV14 [1]; 0.9 µM): 0.88
relative infection (HRV14 [1]; 2.8 µM): 0.81
relative infection (HRV14 [1]; 8.3 µM): 0.46
relative infection (HRV14 [1]; 25.0 µM): 0.07
relative infection (HRV2 [2]; 0.1 µM): 1.05
relative infection (HRV2 [2]; 0.3 µM): 0.96
relative infection (HRV2 [2]; 0.9 µM): 0.86
relative infection (HRV2 [2]; 2.8 µM): 0.72
relative infection (HRV2 [2]; 8.3 µM): 0.15
relative infection (HRV2 [2]; 25.0 µM): 0.01
relative infection (CVB4 [3]; 0.1 µM): 1.13
relative infection (CVB4 [3]; 0.3 µM): 1.22
relative infection (CVB4 [3]; 0.9 µM): 1.20
relative infection (CVB4 [3]; 2.8 µM): 1.06
relative infection (CVB4 [3]; 8.3 µM): 0.71
relative infection (CVB4 [3]; 25.0 µM): 0.29
pIC50 (HRV1A [4]; HeLa, read-out: IC50 (HRV1A)): 5.47
activity at 0.03 µM (HRV1A [4]): 93%
activity at 0.1 µM (HRV1A [4]): 85%
activity at 0.31 µM (HRV1A [4]): 88%
activity at 0.93 µM (HRV1A [4]): 87%
activity at 2.78 µM (HRV1A [4]): 66%
activity at 8.33 µM (HRV1A [4]): 17%
activity at 25 µM (HRV1A [4]): 4%
relative infection (CVA21 [5]; 0.1 µM): 0.87
relative infection (CVA21 [5]; 0.3 µM): 0.98
relative infection (CVA21 [5]; 0.9 µM): 1.00
relative infection (CVA21 [5]; 2.8 µM): 0.99
relative infection (CVA21 [5]; 8.3 µM): 1.10
relative infection (CVA21 [5]; 25.0 µM): 0.59
pIC50 (CVA21 [10]): ~4.59
relative infection (HRV1A [6]; 0.1 µM): 0.93
relative infection (HRV1A [6]; 0.3 µM): 0.91
relative infection (HRV1A [6]; 0.9 µM): 0.84
relative infection (HRV1A [6]; 2.8 µM): 0.62
relative infection (HRV1A [6]; 8.3 µM): 0.17
relative infection (HRV1A [6]; 25.0 µM): 0.02
pIC50 (HRV2 [11]): 5.40
pIC50 (CVB4 [12]): 4.82
relative infection (CVB3; 0.1 µM): 1.05
relative infection (CVB3; 0.3 µM): 1.06
relative infection (CVB3; 0.9 µM): 1.11
relative infection (CVB3; 2.8 µM): 1.06
relative infection (CVB3; 8.3 µM): 1.00
relative infection (CVB3; 25.0 µM): 1.27
pIC50 [7]: 4.99
pIC50 (HRV14 [13]): 5.16
pIC50 (HRV16 [8]): 4.95
relative infection (HRV16 [9]; 0.1 µM): 0.99
relative infection (HRV16 [9]; 0.3 µM): 1.00
relative infection (HRV16 [9]; 0.9 µM): 0.96
relative infection (HRV16 [9]; 2.8 µM): 0.96
relative infection (HRV16 [9]; 8.3 µM): 0.68
relative infection (HRV16 [9]; 25.0 µM): 0.10
